ChEMBL document CHEMBL4680219, “Structure-thermodynamics-relationships of hepatitis C viral NS3 protease inhibitors” (Eur J Med Chem, 2020)

Tests used:
[1] = Binding affinity to HCV NS3/4a protease by isothermal titration calorimetry; design: species or system Hepacivirus hominis
[2] = Inhibition of HCV NS3/4a protease using biotin-DDIVPCSMSY[125I]TW as substrate by radiometric assay; design: species or system Hepacivirus hominis

Kd [1] [µM]	Ki [2] [µM]	SMILES
2.63	–	C=CC1C[C@@]1(NC(=O)[C@@H]1C[C@@H](Oc2cc(-c3ccccc3)nc3ccccc23)CN1C(=O)[C@H](C)NC(=O)OC(C)(C)C)C(=O)O (some centres undefined)
0.1	–	C=CC1C[C@@]1(NC(=O)[C@@H]1C[C@@H](Oc2cc(-c3ccccc3)nc3ccccc23)CN1C(=O)[C@@H](NC(=O)OC(C)(C)C)C(C)(C)C)C(=O)O (some centres undefined)
0.9	–	C=CC1C[C@@]1(NC(=O)[C@@H]1C[C@@H](Oc2cc(-c3ccccc3)nc3ccccc23)CN1C(=O)[C@H](CC)NC(=O)OC(C)(C)C)C(=O)O (some centres undefined)
0.83	–	C=CC1C[C@@]1(NC(=O)[C@@H]1C[C@@H](Oc2ccnc(-c3ccccc3)c2)CN1C(=O)[C@@H](NC(=O)OC(C)(C)C)C(C)(C)C)C(=O)O (some centres undefined)
77	–	C=CC1C[C@@]1(NC(=O)[C@@H]1C[C@@H](Oc2cc(-c3ccccc3)nc3ccccc23)CN1C(=O)CNC(=O)OC(C)(C)C)C(=O)O (some centres undefined)
0.18	0.05	C=CC1C[C@@]1(NC(=O)[C@@H]1C[C@@H](Oc2ccnc3cc(OC)ccc23)CN1C(=O)[C@@H](NC(=O)OC(C)(C)C)C(C)(C)C)C(=O)O (some centres undefined)
13.5	29	C=CC1C[C@@]1(NC(=O)[C@@H]1C[C@@H](Oc2ccncc2)CN1C(=O)[C@@H](NC(=O)OC(C)(C)C)C(C)(C)C)C(=O)O (some centres undefined)
0.019	0.02	C=CC1C[C@@]1(NC(=O)[C@@H]1C[C@@H](Oc2cc(-c3ccccc3)nc3cc(OC)ccc23)CN1C(=O)[C@@H](NC(=O)OC(C)(C)C)C(C)(C)C)C(=O)O (some centres undefined)
0.19	0.14	C=CC1C[C@@]1(NC(=O)[C@@H]1C[C@@H](Oc2ccnc3ccccc23)CN1C(=O)[C@@H](NC(=O)OC(C)(C)C)C(C)(C)C)C(=O)O (some centres undefined)
0.25	–	C=CC1C[C@@]1(NC(=O)[C@@H]1C[C@@H](Oc2cc(-c3ccccc3)nc3ccccc23)CN1C(=O)[C@@H](NC(=O)OC(C)(C)C)C(C)C)C(=O)O (some centres undefined)
